Test system: K24384-001-R-PDC complex spheroids, viability
Assay: Anticancer human tumor K24384-001-R-PDC patient-derived pancreatic adenocarcinoma cell line growth inhibition [GQUAD]
Conditions: for IC50: curve of first compound; for viability, T/C: stronger effect = lower value
Summary of the method: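 Viability of tumor cells grown as complex spheroids with endothelial and stromal cells, exposed to drug combinations. Top concentration at or near clinical Cmax (else 10 microM), diluted in half-log increments.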

[1] = second compound 0.0316 µM, first compound 0.0316 µM
[2] = second compound 0.0316 µM, first compound 0.1 µM
[3] = second compound 0.0316 µM, first compound 0.316 µM
[4] = second compound 0.0316 µM, first compound 1 µM
[5] = second compound 0.0316 µM, first compound 3.16 µM
[6] = second compound 0.0316 µM, first compound 10 µM
[7] = second compound 0.1 µM, first compound 0.0316 µM
[8] = second compound 0.1 µM, first compound 0.1 µM
[9] = second compound 0.1 µM, first compound 0.316 µM
[10] = second compound 0.1 µM, first compound 1 µM
[11] = second compound 0.1 µM, first compound 3.16 µM
[12] = second compound 0.1 µM, first compound 10 µM
[13] = second compound 0.316 µM, first compound 0.0316 µM
[14] = second compound 0.316 µM, first compound 0.1 µM
[15] = second compound 0.316 µM, first compound 0.316 µM
[16] = second compound 0.316 µM, first compound 1 µM
[17] = second compound 0.316 µM, first compound 3.16 µM
[18] = second compound 0.316 µM, first compound 10 µM
[19] = second compound 1 µM, first compound 0.0316 µM
[20] = second compound 1 µM, first compound 0.1 µM
[21] = second compound 1 µM, first compound 0.316 µM
[22] = second compound 1 µM, first compound 1 µM
[23] = second compound 1 µM, first compound 3.16 µM
[24] = second compound 1 µM, first compound 10 µM
[25] = second compound 3.16 µM, first compound 0.0316 µM
[26] = second compound 3.16 µM, first compound 0.1 µM
[27] = second compound 3.16 µM, first compound 0.316 µM
[28] = second compound 3.16 µM, first compound 1 µM
[29] = second compound 3.16 µM, first compound 3.16 µM
[30] = second compound 3.16 µM, first compound 10 µM
[31] = second compound 10 µM, first compound 0.0316 µM
[32] = second compound 10 µM, first compound 0.1 µM
[33] = second compound 10 µM, first compound 0.316 µM
[34] = second compound 10 µM, first compound 1 µM
[35] = second compound 10 µM, first compound 3.16 µM
[36] = second compound 10 µM, first compound 10 µM
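Also: spheroids exposed to compounds for seven days.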

COc1cc(C2c3cc4c(cc3C(OC3OC5COC(C)OC5C(O)C3O)C3COC(=O)C23)OCO4)cc(OC)c1O (stereo not drawn) + Cc1[nH]c2ccc(F)cc2c1-c1nc2c3cccnc3c3ncccc3c2[nH]1
IC50 (second compound 0.0316 µM): 3000 nM | IC50 (second compound 0.1 µM): 1320 nM | IC50 (second compound 0.316 µM): 1940 nM | IC50 (second compound 1 µM): 2780 nM | IC50 (second compound 3.16 µM): 1860 nM | IC50 (second compound 10 µM): 688 nM | viability, T/C [1]: 104% | viability, T/C [2]: 96% | viability, T/C [3]: 73.3% | viability, T/C [4]: 71% | viability, T/C [5]: 47.1% | viability, T/C [6]: 33.5% | viability, T/C [7]: 90% | viability, T/C [8]: 94.7% | viability, T/C [9]: 68.8% | viability, T/C [10]: 57% | viability, T/C [11]: 37.5% | viability, T/C [12]: 35.9% | viability, T/C [13]: 113% | viability, T/C [14]: 99.5% | viability, T/C [15]: 75.6% | viability, T/C [16]: 59.3% | viability, T/C [17]: 44.1% | viability, T/C [18]: 35.2% | viability, T/C [19]: 85% | viability, T/C [20]: 80.7% | viability, T/C [21]: 68.7% | viability, T/C [22]: 67.6% | viability, T/C [23]: 44.5% | viability, T/C [24]: 38.1% | viability, T/C [25]: 83.2% | viability, T/C [26]: 71.8% | viability, T/C [27]: 67.6% | viability, T/C [28]: 69.6% | viability, T/C [29]: 33.2% | viability, T/C [30]: 30.8% | viability, T/C [31]: 55.4% | viability, T/C [32]: 59.5% | viability, T/C [33]: 53.1% | viability, T/C [34]: 47.7% | viability, T/C [35]: 24.5% | viability, T/C [36]: 19.8%

O=c1[nH]cc(F)c(=O)[nH]1 + Cc1[nH]c2ccc(F)cc2c1-c1nc2c3cccnc3c3ncccc3c2[nH]1
IC50 (second compound 0.0316 µM): 4360 nM | IC50 (second compound 0.1 µM): > 10000 nM | IC50 (second compound 0.316 µM): 1180 nM | IC50 (second compound 1 µM): 3090 nM | IC50 (second compound 3.16 µM): 479 nM | IC50 (second compound 10 µM): 581 nM | viability, T/C [1]: 98.4% | viability, T/C [2]: 77.9% | viability, T/C [3]: 76.1% | viability, T/C [4]: 55.5% | viability, T/C [5]: 54.9% | viability, T/C [6]: 44.4% | viability, T/C [7]: 88.4% | viability, T/C [8]: 92.7% | viability, T/C [9]: 86.8% | viability, T/C [10]: 55.6% | viability, T/C [11]: 62.4% | viability, T/C [12]: 39.6% | viability, T/C [13]: 97% | viability, T/C [14]: 90.9% | viability, T/C [15]: 66.3% | viability, T/C [16]: 53.3% | viability, T/C [17]: 43.2% | viability, T/C [18]: 39.9% | viability, T/C [19]: 88.2% | viability, T/C [20]: 93.1% | viability, T/C [21]: 66.7% | viability, T/C [22]: 59.9% | viability, T/C [23]: 54.8% | viability, T/C [24]: 36.3% | viability, T/C [25]: 69.4% | viability, T/C [26]: 56.5% | viability, T/C [27]: 51.9% | viability, T/C [28]: 53% | viability, T/C [29]: 35.5% | viability, T/C [30]: 43% | viability, T/C [31]: 65.3% | viability, T/C [32]: 53.6% | viability, T/C [33]: 62.3% | viability, T/C [34]: 40.7% | viability, T/C [35]: 33.8% | viability, T/C [36]: 31.7%

Nc1ccn(C2OC(CO)C(O)C2(F)F)c(=O)n1 (stereo not drawn) + CN(C)c1ccc(Nc2c3ccc(NC(=O)CCN4CCCC4)cc3nc3cc(NC(=O)CCN4CCCC4)ccc23)cc1
IC50 (second compound 0.0316 µM): 238 nM | IC50 (second compound 0.1 µM): 157 nM | IC50 (second compound 0.316 µM): 152 nM | IC50 (second compound 1 µM): 111 nM | IC50 (second compound 3.16 µM): 144 nM | IC50 (second compound 10 µM): 118 nM | viability, T/C [1]: 73.4% | viability, T/C [2]: 66.5% | viability, T/C [3]: 40.9% | viability, T/C [4]: 35.9% | viability, T/C [5]: 23.1% | viability, T/C [6]: 21.4% | viability, T/C [7]: 78.1% | viability, T/C [8]: 57.2% | viability, T/C [9]: 38.2% | viability, T/C [10]: 30.8% | viability, T/C [11]: 19.8% | viability, T/C [12]: 19.8% | viability, T/C [13]: 68.1% | viability, T/C [14]: 56.6% | viability, T/C [15]: 38.7% | viability, T/C [16]: 30.3% | viability, T/C [17]: 20.6% | viability, T/C [18]: 17.2% | viability, T/C [19]: 71.9% | viability, T/C [20]: 49.9% | viability, T/C [21]: 39.2% | viability, T/C [22]: 24.4% | viability, T/C [23]: 19.9% | viability, T/C [24]: 16.8% | viability, T/C [25]: 76.5% | viability, T/C [26]: 57.6% | viability, T/C [27]: 33.7% | viability, T/C [28]: 23.3% | viability, T/C [29]: 18.6% | viability, T/C [30]: 15.6% | viability, T/C [31]: 63.6% | viability, T/C [32]: 54.1% | viability, T/C [33]: 32.8% | viability, T/C [34]: 27.9% | viability, T/C [35]: 18.3% | viability, T/C [36]: 18.2%

CC(C)n1c(=O)n(C)c2cnc3cc(F)c(-c4ccc(OCCCN5CCCCC5)nc4)cc3c21 + Cc1[nH]c2ccc(F)cc2c1-c1nc2c3cccnc3c3ncccc3c2[nH]1
IC50 (second compound 0.0316 µM): > 10000 nM | IC50 (second compound 0.1 µM): > 10000 nM | IC50 (second compound 0.316 µM): > 10000 nM | IC50 (second compound 1 µM): > 10000 nM | IC50 (second compound 3.16 µM): > 10000 nM | IC50 (second compound 10 µM): > 10000 nM | viability, T/C [1]: 108% | viability, T/C [2]: 96.1% | viability, T/C [3]: 126% | viability, T/C [4]: 110% | viability, T/C [5]: 122% | viability, T/C [6]: 87.5% | viability, T/C [7]: 92.1% | viability, T/C [8]: 129% | viability, T/C [9]: 110% | viability, T/C [10]: 116% | viability, T/C [11]: 157% | viability, T/C [12]: 91.7% | viability, T/C [13]: 87.1% | viability, T/C [14]: 100% | viability, T/C [15]: 100% | viability, T/C [16]: 96.6% | viability, T/C [17]: 125% | viability, T/C [18]: 146% | viability, T/C [19]: 104% | viability, T/C [20]: 107% | viability, T/C [21]: 101% | viability, T/C [22]: 99.1% | viability, T/C [23]: 134% | viability, T/C [24]: 107% | viability, T/C [25]: 78.6% | viability, T/C [26]: 89.2% | viability, T/C [27]: 79.9% | viability, T/C [28]: 99.4% | viability, T/C [29]: 99.1% | viability, T/C [30]: 83.3% | viability, T/C [31]: 71.9% | viability, T/C [32]: 73.4% | viability, T/C [33]: 71.1% | viability, T/C [34]: 96.3% | viability, T/C [35]: 79.4% | viability, T/C [36]: 72.1%
